Test results from patent US20220275376A1, “TARGETING SLC38A2 IN PANCREATIC CANCER” (New York University, priority 2019, published 2022).

Tests used:
[1] = system: PANC1 cells; experiment: Intracellular alanine levels in drug-treated PANC1 cells (GC-MS); type: cell-based, human; details: 24 hours, PXT 10 μM, DPM 10, racemic FLX 10 or 25 μM, vs vehicle (DMSO)
Method: (A) Western blot depicting SLC38A2 levels in PANC1 cells engineered to express SLC38A2 under control of doxycycline. Withdrawal of doxycycline results in a significant depletion in SLC38A2 levels after 24 hours.
Fluvoxamine (FVX), fluoxetine (FLX), paroxetine (PXT), sertindole (SND), and blonanserin (BNS) were acquired from Cayman Chemicals. Desipramine (DPM), α-(Methylamino) isobutyric acid (MeAIB), and L-alanine were acquired from Sigma. Stocks were prepared at 10 mM or 7.5 mM (BNS) in DMSO. Cells were treated with vehicle (DMSO) or varying concentrations of drug for indicated time. Conditioned media was collected and centrifuged at 1,000×g to remove cell debris followed by extraction of metabolites. For metabolite extraction, cells were first washed with ice cold 0.9% NaCl to remove media contamination followed by addition of 500 μL methanol (−20° C.) and 200 μL HPLC grade water (4° C.). Cells were scraped and pipeted into glass vials containing 500 μL chloroform (4° C.) and vortexed at 4° C. for 10-15 minutes. Aqueous and inorganic layers were separated by cold centrifugation for 15 minutes. 300 μL of the aqueous layer containing polar metabolites was transferred to sample vials (Agilent 5190-2243) and evaporated using a SpeedVac (Savant Thermo SPD111V). Dried samples were stored at −20° C. and re-evaporated for 5-10 minutes prior to derivatization and GC-MS analysis.

[2] = biological target: T1, SLC38A2 (Homo sapiens, UniProt Q96QD8); experiment: SLC38A2 activity measured by MeAIB uptake in HY15549 dox-inducible SNAT2 cells; type: cell-based; details: for inhibition of MeAIB uptake (intracellular MeAIB levels): 20 μm compound, MeAIB 0.3 mM, 1 hour, vs vehicle (PBS), HY15549 cells expressing dox-inducible SLC38A2/SNAT2
T1 construct: expressed in transfected cells; host or cells: HY15549 cells with dox-inducible SNAT2
T1 sequence (Q96QD8 1-506): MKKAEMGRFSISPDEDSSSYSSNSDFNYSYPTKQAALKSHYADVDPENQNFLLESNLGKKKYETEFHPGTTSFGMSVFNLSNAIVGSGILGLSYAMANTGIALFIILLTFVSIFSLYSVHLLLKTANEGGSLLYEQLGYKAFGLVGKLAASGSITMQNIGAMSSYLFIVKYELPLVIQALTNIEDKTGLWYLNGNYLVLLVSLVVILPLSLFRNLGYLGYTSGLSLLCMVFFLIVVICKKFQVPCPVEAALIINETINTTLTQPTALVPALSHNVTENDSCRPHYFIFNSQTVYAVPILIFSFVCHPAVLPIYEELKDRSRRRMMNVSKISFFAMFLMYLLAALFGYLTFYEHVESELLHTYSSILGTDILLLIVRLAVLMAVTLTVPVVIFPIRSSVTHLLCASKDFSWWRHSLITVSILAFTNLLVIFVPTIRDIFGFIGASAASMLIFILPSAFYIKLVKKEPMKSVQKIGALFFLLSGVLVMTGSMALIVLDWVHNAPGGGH
Method: (A) Schematic depicting SLC38A2-dependent update of alanine structural analog, methyl α-aminoisobutyrate (MeAIB). […] (B) Total ion chromatogram (TIC) of HY15549 dox-inducible SNAT2 cells treated with 1 mM MeAIB for 24 hours compared to vehicle (PBS). […] HY15549 dox-inducible SNAT2 cells were cultured with a concentration gradient of MeAIB for 15 minutes (gray circles) or 60 minutes (black squares). (D) Western blot depicting SLC38A2 expression relative to doxycycline after 24 hours culture in HY15549 dox-inducible SNAT2 cells. (E) Intracellular MeAIB levels in HY15549 dox-inducible cells cultured with dox (+SNAT2, left bar) and without dox (KO, right bar) for 24 hours with 1 mM MeAIB. (F) Intracellular MeAIB levels in HY15549 dox-inducible cells cultured with vehicle, paroxetine (PXT, 20 μM), or sertraline (SRT, 20 μm) for 24 hours with 300 μM MeAIB.

[3] = system: HY19636 cells; experiment: Orthotopic syngeneic allograft, HY19636 cells; type: in vivo, C57BL/6J mice; details: HY19636 (2.5×10^4) pooled SLC38A2-deficient cells vs sgTom, 27 days
Method: (§1) (A) SLC38A2 staining in pancreatic tumors derived from the KPC (LSL-Kras^G12D; Trp53^lox/+; p48Cre+) mouse model and normal murine pancreas. Representative fields from KPC (4×, left) and normal pancreas (10×, right) are depicted with scale bars. Arrows indicate instances of punctate SLC38A2 in normal pancreas (right). (B) Representative live cell images of HY19636 (left) and mPSC #1 (right) cells transiently transfected with 3 μg of SLC38A2-GFP (green) overnight and stained with MitoTracker (red) to visualize individual cells; scale bars are indicated in figures. […] Subcutaneous tumors were monitored bi-weekly by caliper measurement and considered formed if length and width were measured to be ≥1 mm each. […] Orthotopic xenografts were monitored by 3-D ultrasound bi-weekly and considered tumors if volume ≥1 mm^3. […] HY19636 (2.5×10^4) or PANC1 (5×10^5) control (sgTom) or pooled SLC38A2-deficient (sgSLC38A2 #1, #3) cells were injected orthotopically, and tumors were weighed following resection after 27 days (HY19636) or 63 days (PANC1). Error bars depict s.e.m. of tumors resected from 9-10 mice.
For orthotopic xenograft experiments, PANC1 cells were infected with lentiviral shRNAs or sgRNAs targeting SLC38A2 or GFP/Tomato as a control and selected with puromycin (2 μg/mL) for three days. […]

[4] = system: PANC1 cells; experiment: Orthotopic xenograft, PANC1 cells; type: in vivo, NCr nude mice; details: for tumor burden (tumor weight after resection): PANC1 (5×10^5) pooled SLC38A2-deficient cells vs sgTom, 63 days; for tumor initiation: SLC38A2 knockdown PANC1 cells (5×10^5), orthotopic, vs shGFP, 3-D ultrasound, tumor if volume ≥1 mm^3
Method: as §1
For orthotopic xenograft experiments, PANC1 cells were infected with lentiviral shRNAs or sgRNAs targeting SLC38A2 or GFP/Tomato as a control and selected with puromycin (2 μg/mL) for three days. For syngeneic orthotopic allograft studies, HY19636 cells were infected with lentiviral sgRNAs targeting SLC38A2 or Tomato and selected with puromycin (2 μg/mL) for three days. 500,000 PANC1 cells or […] HY19636 cells were resuspended in 10 μl HBSS and 10 μl growth factor-reduced matrigel (Corning 356231) per injection and kept on ice. Female 7-8 week old NCr nude or C57BL/6J mice were used for xenograft and allograft experiments, respectively. An incision was made near the spleen which was gently removed from the peritoneal space to expose the pancreas. The 20 μL cell:matrigel suspension was slowly injected into the tail of the exposed pancreas using either a Hamilton or insulin syringe (BD 324702). After injection, the needle was held in place by tweezers briefly to allow the matrigel to polymerize before gently removing the needle and re-introducing the spleen and pancreas into the animal. The peritoneum was sutured and the wound was closed with surgical staples. Buprenorphine was administered by intraperitoneal injection and immediately after surgery and every 12 hours for 48 hours.
After injection, all mice were allowed to recover from surgery for five days before screening for tumor initiation by non-invasive 3-D ultrasound imaging (VisualSonics Vevo 770) twice a week under anesthesia using 1-3% isoflurane via nose cone. Tumor initiation was considered if volume ≥1 mm^3 and sustained or increased in volume over the course of the experiment. […]

[5] = system: PANC1 cells; experiment: Subcutaneous xenograft tumor initiation, PANC1 cells co-injected with hPSC #1 cells; type: in vivo, NCr nude mice; details: SLC38A2 knockdown PANC1 cells (2×10^5) co-injected with hPSC #1 cells (1×10^6), vs shGFP; tumor if length and width ≥1 mm
Method: (A) SLC38A2 staining in pancreatic tumors derived from the KPC (LSL-Kras^G12D; Trp53^lox/+; p48Cre+) mouse model and normal murine pancreas. Representative fields from KPC (4×, left) and normal pancreas (10×, right) are depicted with scale bars. Arrows indicate instances of punctate SLC38A2 in normal pancreas (right). (B) Representative live cell images of HY19636 (left) and mPSC #1 (right) cells transiently transfected with 3 μg of SLC38A2-GFP (green) overnight and stained with MitoTracker (red) to visualize individual cells; scale bars are indicated in figures. […] Subcutaneous tumors were monitored bi-weekly by caliper measurement and considered formed if length and width were measured to be ≥1 mm each. […] Orthotopic xenografts were monitored by 3-D ultrasound bi-weekly and considered tumors if volume ≥1 mm^3. […]
For subcutaneous co-injection tumor initiation studies, PANC1 cells were infected with lentiviral shRNAs targeting SLC38A2 or GFP as a control shRNA and selected with puromycin (2 μg/mL) for three days. […] Tumor initiation was monitored two to three times per week by caliper measurement. Tumor initiation was considered if length and width were measured to be ≥1 mm each.

Molecule: CNCCC(Oc1ccc(C(F)(F)F)cc1)c1ccccc1 (racemic) [fluoxetine]
- reduction of intracellular alanine levels [1]: ~50%

Molecule: CNC(C)(C)C(=O)O [MeAIB, α-(Methylamino) isobutyric acid]
- Km ([2]; HY15549 dox-inducible SNAT2 cells, MeAIB concentration gradient, 15 or 60 minutes, read-out: Km of MeAIB uptake (Michaelis-Menten kinetics)): ~3.5 mM

Molecule: CNCCCN1c2ccccc2CCc2ccccc21 [desipramine]
- reduction of intracellular alanine levels [1]: ~50%

Molecule: Fc1ccc([C@@H]2CCNC[C@H]2COc2ccc3c(c2)OCO3)cc1 [paroxetine]
- reduction of intracellular alanine levels [1]: ~50%
- inhibition of MeAIB uptake (intracellular MeAIB levels) [2]: inhibited

Molecule: CN[C@H]1CC[C@@H](c2ccc(Cl)c(Cl)c2)c2ccccc21 [sertraline]
- inhibition of MeAIB uptake (intracellular MeAIB levels) [2]: inhibited

Molecule: sgSLC38A2 #1: CRISPR sgRNA targeting SLC38A2, TAATCTGAGCAATGCGATTG (SEQ ID NO:7) (expressed or natural sequence)
- tumor burden (tumor weight after resection) [3]: significantly reduced tumor burden
- tumor burden (tumor weight after resection) [4]: significantly reduced tumor burden

Molecule: sgSLC38A2 #3: CRISPR sgRNA targeting SLC38A2, TCTTATGCCATGGCTAATAC (SEQ ID NO:8) (expressed or natural sequence)
- tumor burden (tumor weight after resection) [3]: significantly reduced tumor burden
- tumor burden (tumor weight after resection) [4]: significantly reduced tumor burden

Molecule: shSLC38A2 #1: lentiviral shRNA targeting SLC38A2, GGAGAAGATACTGTGGCAA (SEQ ID NO:2), TRCN0000020243
- tumor initiation [4]: significantly suppressed
- tumor initiation [5]: significantly suppressed

Molecule: shSLC38A2 #4: lentiviral shRNA targeting SLC38A2, GAATACCAAGAGTTGTTTCTA (SEQ ID NO:3), TRCN0000020241
- tumor initiation [4]: significantly suppressed
- tumor initiation [5]: significantly suppressed
